Key:
[1] = Oral tolerability / maximal tolerated dose in mice; conditions: mouse
HCT116 cells = experiment: Histone acetylation by Western blotting; assay type: cell-based

CCCCNNC(=O)c1ccc(Br)cc1 [UF010, 4-bromo-N′-butylbenzohydrazide]
MTD ([1]; in vivo, po, 80 mg/kg): > 80 mg/kg | MTD ([1]; oral once daily): >80 mg/kg | inhibition of cellular HDACs (H4K5ac, H3K18ac) (HCT116 cells; HCT116, 0.5 μM, 24 h (FIG. 1B)): potent inhibition of cellular HDACs | accumulation of acetylated histones (HCT116 cells; HCT116, 1 h exposure, TSA 0.2 μM, others 2 μM (FIG. 1A)): consistently induced the accumulation of acetylated histones at all sites examined
